In US20230242474A1, “LIPID COMPOUND AND THE COMPOSITION THEREOF” (GUANGZHOU RIBOBIO CO., LTD, priority 2020, published 2023):
Several values for one entry are separate records, joined by “and”; a condition that tells them apart may be missing. Equal entries are not always repeated. Where two headings read alike, the source gives them in different places.

Tests used:
[1] = type: physicochemical
BALB/c mice = test: Transfection efficiency: in vivo bioluminescence of luciferase mRNA encapsulated by different LNP; conditions: intramuscular injection, 1 μg/ mice
Procedure: All animals were kept in adaptive feeding for more than 7 days before experiments, free to uptake food and drink water during experimental period, illumination 12/12 h alternating light and dark, room temperature was 20-26° C., humidity was 40-70%.
Experimental method: female BALB/c mice, encapsulated luciferase mRNA with different LNP by four different administrations which included subcutaneous injection (under the armpit), tail vein injection, intraperitoneal injection, intramuscular injection (the tibialis anterior muscle of mouse hind leg); 3, 6, 24, 48 h after administration, applied in vivo fluorescence imaging system (brand: Bruker, model: XTREME) for bioluminescence detection, the specific steps were as follows: substrate preparation: took appropriate amount of substrate Luciferin (brand: Promega) and added saline to make a 10 mg/ml solution, avoided light, injected 100 μl solution into each mouse intraperitoneally. […] Put the anesthetized mouse into machine, set the bioluminescence setting and took the photos, captured the photograph and then adjusted the upper and lower values of photograph, then collected data on the concentrated distribution of fluorescence (e.g., fluorescence intensity, average photons number, and total photons number) and processed data. Statistical analysis: the in vivo imaging outcome were shown in the fluorescence intensity or average of total photons number of different animal in the same tested group, which were used to judge whether the fluorescence intensity or total photon number of luciferase mRNA encapsulated by different LNP were high or low.
The fluorescence intensity and total photons number reflects the transfection efficiency of LNP, the value is higher, referring to the efficiency of delivering encapsulated substance into cell by LNP is higher.

Wistar rats = test: Safety evaluation of LNP: acute toxicity test in rat; type: in vivo; design: key to Histopathological result, Muscle tissue / Histopathological result, Heart / Histopathological result, Liver / Histopathological result, Kidney / Histopathological result, Spleen / Histopathological result, Thymus / Histopathological result, Lymph nodes / Histopathological result, Pancreas: ″—″ means no abnormality
Procedure: Wistar rats including 4 males and 4 females, with a weight difference of no more than 10%, were selected and randomly divided into two groups: solvent control group and tested substance group. The concentration used in the measurement was 2 mg/mL. Each animal was administered 3 times a day with the volume of each injection as 250 μl. The administration interval was 4 hours. Alternate administration to the left and right legs were performed. The total dosage level was 1.50 mg per rat, which was equivalent to 1200 times the maximum unit weight dosage level for human (assuming the maximum dosage level for human is 0.25 mg). Clinical observation was recorded as follows. Within 24 hours after administration, clinical observation was carried out every hour. Within 24-72 hours after administration, clinical observation was carried out once every 6 hours. Within 4-14 days after administration, clinical observation was carried out once a day. The symptoms of toxicity, the time when the symptoms appeared and disappeared, and the time of death (if occurred) were recorded. Body weight was recorded once a day after administration, and food intake was recorded every 2 days after administration. 14 days after the administration, all the remaining animals were weighed, then euthanized, and major organs were obtained by anatomy. Heart, liver, spleen, lung, kidney, thymus, lymph node, were weighted and relative organ weight (the organ weight/the subject weight×100%; also known as organ coefficient) was calculated. After anatomy, the heart, liver, spleen, lung, kidney, intestine, thymus, lymph node, muscle tissue at the injection site and other organs with pathological changes observed were stored in a fixation solution, and the pathology of each organ was examined by H&E staining. Lesion severity scores were given according to the table below.
Specifically, the body weight of male rats in the solvent control group continued to increase. […] The food intake per rat in the solvent control group within 24 hours was stable, within a range of 18-35 grams.

[2] = test system: T lymphocytes secreting INFγ; test: ELISPOT count of T lymphocytes secreting INFγ after immunization with LNP-encapsulated SARS-CoV-2 S protein mRNA; type: in vivo, BALB/c mice; conditions: S protein (1 μg) stimulation, intramuscular Day 0 and Day 14, spleens after 7 days
[3] = test system: S protein specific IgG antibody; type: in vivo, BALB/c mice; conditions: 14 days after the second immunization, LNP with S protein mRNA, FIG. 5
[4] = LNP empty vector used in the rat safety study, Table 5
[5] = LNP with SARS-CoV-2 S protein mRNA, Table 9
[6] = lipid nanoparticle of the ionizable lipid with mRNA, Table 1
[7] = H&E, day 14, 1.50 mg per rat, animals 1001 and 1101
[8] = empty LNP, 1.50 mg per rat i.m., day 14, average of male, female rat
[9] = empty LNP, 1.50 mg per rat, day 14

In the case of `CCCCCCOCC(COCCCCCC)OC(=O)CCCCCCCN(CCO)CCCCCCCC(=O)OC(COCCCCCC)COCCCCCC` [A18], the PDI [1, 4] is reported as 0.088, the “Size (nm)” value [1, 4] is reported as 147 nm and the “Encapsulated percentage (%)” value [1, 5] is reported as 94%. The PI [1, 5] was 0.075, the “Size (nm)” value [1, 5] was 86 nm and the “Size (nm)” value ([1]; lipid nanoparticle of the ionizable lipid (ionizable lipid/phospholipid/PEG lipid/structural lipid 50/10/1.5/38.5 %) with mRNA, Table 1) was 104.8 nm. The “Encapsulated percentage (%)” value [1, 6] was 93.58%, the PDI [1, 6] was 0.0835 and the “Total photons number, Leg” value (BALB/c mice; 3 h) was 3.91E+09. The “Total photons number, Leg” value (BALB/c mice; 6 h) was 4.16E+09, the “Total photons number, Leg” value (BALB/c mice; 24 h) was 2.90E+08 and the “Overall pathological changes after the 1200 times higher dosage level of the LNP injection” value (Wistar rats; 1.50 mg per rat, 1200 times the maximum unit weight dosage level for human) was “only slight pathological changes in the lungs and legs”. The “Histopathological result, Heart” value (Wistar rats; [7]) was “—”, the “Histopathological result, Kidney” value (Wistar rats; [7]) was “—” and the “Histopathological result, Liver” value (Wistar rats; [7]) was “—”. The “Histopathological result, Lymph nodes” value (Wistar rats; [7]) was “—”, the “Histopathological result, Pancreas” value (Wistar rats; [7]) was “—” and the “Histopathological result, Spleen” value (Wistar rats; [7]) was “—”. The “Histopathological result, Thymus” value (Wistar rats; [7]) was “—”, the “Histopathological result, Lung” value (Wistar rats; H&E, day 14, 1.50 mg per rat, animals 1001 and 1101, cell wraps over three grid rows: Partial stromal cell hyperplasia) was “Partial” and the “Histopathological result, Muscle tissue” value (Wistar rats; H&E, day 14, 1.50 mg per rat, injection site, animals 1001 and 1101) was “—”. For the same compound, the “Body weight change of rats” value (Wistar rats; empty LNP, 1.50 mg per rat i.m., 14 days, FIGS. 1-2) was “dropped initially, then recovered to the pre-administration level on Day 4-Day 6, and continued to increase subsequently”, the “Food intake change of rats” value (Wistar rats; empty LNP, 1.50 mg per rat i.m., 14 days, FIGS. 3-4) was “decreased initially, and returned to normal levels on Day 4-Day 7” and the “Relative organ weight, Brain” value (Wistar rats; [8]) was 0.687. For the same compound, the “Relative organ weight, Kidney left” value (Wistar rats; [8]) was 0.351, the “Relative organ weight, Kidney right” value (Wistar rats; [8]) was 0.356 and the “Relative organ weight, Liver” value (Wistar rats; [8]) was 3.773. For the same compound, the “Relative organ weight, Lung” value (Wistar rats; [8]) was 0.413, the “Relative organ weight, Lymph nodes” value (Wistar rats; [8]) was 0.006 and the “Relative organ weight, Spleen” value (Wistar rats; [8]) was 0.250. For the same compound, the “Relative organ weight, Thymus” value (Wistar rats; [8]) was 0.149, the “Relative organ weight, Heart” value (Wistar rats; empty LNP, 1.50 mg per rat i.m., day 14, organ weight/subject weight×100%, average of male, female rat) was 0.308 and the “Heart, liver, kidney, spleen, thymus and lymph node coefficients compared with the solvent control group” value (Wistar rats; [9]) was “did not show significant difference”. The “Pathological change in the lung” value (Wistar rats; [9]) was “proliferation of partial interstitial cells in the lung”, the “Pathological change in the muscle tissue” value (Wistar rats; [9]) was “a small amount of inflammatory cell infiltration in the muscle tissue” and the “Pathological changes of heart, liver, kidney, spleen, thymus, and lymph nodes” value (Wistar rats; empty LNP, 1.50 mg per rat, day 14, compared with solvent control) was “no pathological changes”. For the same compound, the “Elispot counted T lymphocytes secreting INFγ” value ([2]; dose 5 μg) was 161 and 153, the “Elispot counted T lymphocytes secreting INFγ” value ([2]; dose 20 μg) was 241 and 251 and the “S protein specific IgG antibody titer” value [3] was “higher titers of IgG antibodies”.
